These results are taken from article PMC1448180, “Small-molecule and mutational analysis of allosteric Eg5 inhibition by monastrol” (BMC Chemical Biology, 2006).

In assay [1] the test system is AB9 cells. Briefly: Spindle phenotype of D. rerio cells treated with monastrol. In kind it is cell-based. Particulars: data not shown. The text has this:
Monastrol binds a hydrophobic pocket between loop 5 and α3 that is poorly conserved among kinesins, resulting in specificity for vertebrate Eg5 homologs. […] Monastrol is known to inhibit human and Xenopus Eg5 [7, 9], but not BimC [27]. To test its effect on D. rerio Eg5 and Klp-61F, we treated AB9 and KC167 cells with monastrol. […] To obtain unambiguous evidence, we cloned the motor domain of Klp-61F and subjected the recombinant protein to ATPase assays in the presence or absence of microtubules.
Conditions for growing the following cell lines are as described: D. rerio AB9 (37), D. melanogaster KC167 [38], and BS-C-1 green monkey kidney cells. For immunofluorescence microscopy, cells were grown on 12 mm circular coverslips to 30 % confluence, treated medium supplemented with drug and 0.2% DMSO, or a DMSO alone, for 6 hours, fixed with formaldehyde, and stained for DNA and microtubules, as described. D. melanogaster KC167 cells were cultured in Schneider's Drosophila Medium (GIBCO) whereas D. rerio AB9 cells and BS-C-1 green monkey kidney cells were cultured at 37°C in Dulbecco's Minimal medium in the presence of 10 % heat inactivated fetal calf serum.

In assay [2] the target is T1, hEg5-367H (L214I) (Homo sapiens, UniProt P52732, L214I).
T1 sequence (P52732 1-367 L214I): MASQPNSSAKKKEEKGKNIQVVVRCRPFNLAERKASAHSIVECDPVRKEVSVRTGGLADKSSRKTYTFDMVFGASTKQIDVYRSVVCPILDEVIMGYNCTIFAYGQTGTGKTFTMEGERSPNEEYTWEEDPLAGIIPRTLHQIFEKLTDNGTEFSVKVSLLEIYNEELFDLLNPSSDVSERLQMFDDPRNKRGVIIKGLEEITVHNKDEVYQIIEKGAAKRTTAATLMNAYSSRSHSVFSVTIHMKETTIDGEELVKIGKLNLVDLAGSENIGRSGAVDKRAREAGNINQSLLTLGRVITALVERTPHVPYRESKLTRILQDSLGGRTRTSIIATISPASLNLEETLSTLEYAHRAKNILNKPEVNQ
Briefly: ATP hydrolysis by Eg5 motor domain mutant L214I. In kind it is biochemical. The conditions noted are these: Figure 4B; legend: basal ATP hydrolysis; read-out: IC50(μM) of monastrol, (L214I). The text has this: Figure 4 Mutagenesis of the monastrol binding site in human Eg5. (A) Design of mutations in the human Eg5 motor domain. Amino acid side chains that are not conserved between Eg5 and conventional kinesin were targeted, either introducing chimeric or rationally designed mutations (asterix for targeted point mutants) to test the contribution of residues to the drug-sensitivity of Eg5. (B) Steady-state enzymatic parameters for engineered human Eg5 motor domain mutants. Steady-state ATP hydrolysis by Eg5 was measured using an NADH-enzyme coupled assay varying the concentration of ATP, microtubules, or monastrol to obtain the microtubule concentration for half-maximal stimulation (K0.5MT), the maximal rate of microtubule-stimulated ATP hydrolysis (kcat), and the concentration of monastrol that inhibits basal ATP hydrolysis by 50 % (IC50), as described.
We used a modified PCR mutagenesis protocol to introduce mutations into hEg5-367H, a plasmid encoding the C-terminally His6-tagged motor domain (amino acid residues 1–367) of human Eg5. […]
(§1) ATP hydrolysis by recombinantly expressed kinesin motor domains was measured using an NADH-enzyme coupled assay. ATP hydrolysis was measured in KC25 buffer supplemented with 5 μM taxol, 1 mM ATP-KOH (pH 7.0), the appropriate concentration of motor domain, and the appropriate concentrations of taxol-polymerized microtubules.

Assay [3] deals with T2, Klp61F-364H (Drosophila melanogaster, UniProt P46863).
T2 construct: His6 (C); made in house; host or cells: vector pRSETa
T2 sequence (P46863 1-364): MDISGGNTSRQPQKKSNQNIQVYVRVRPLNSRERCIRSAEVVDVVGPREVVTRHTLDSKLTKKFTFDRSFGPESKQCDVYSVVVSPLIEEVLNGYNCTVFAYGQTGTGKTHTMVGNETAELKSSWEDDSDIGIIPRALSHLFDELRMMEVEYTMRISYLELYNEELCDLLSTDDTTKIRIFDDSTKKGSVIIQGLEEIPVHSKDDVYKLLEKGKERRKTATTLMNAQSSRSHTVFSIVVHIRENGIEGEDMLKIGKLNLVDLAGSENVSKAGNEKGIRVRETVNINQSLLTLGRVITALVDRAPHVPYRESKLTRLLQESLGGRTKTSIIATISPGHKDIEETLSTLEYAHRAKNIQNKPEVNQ
Briefly: ATP hydrolysis by Klp-61F motor domain (NADH-enzyme coupled assay). The assay is classed as biochemical, D. melanogaster. Here is the method: Each data point is the average of three independent experiments.
as §1

The subject of assay [4] is human Eg5. Also on record: method as in PMID 10542155, PMID 10973989. The conditions noted are these: cited from earlier work.

`CCOC(=O)C1=C(C)NC(=S)NC1c1cccc(O)c1` (stereo not shown) [Monastrol]: the “Effect on mitosis in D. rerio cells” value in assay [1] was “mitotic arrest”. Besides, the IC50 in assay [2] is 63 ± 7 µM. For the same molecule, the “Inhibition of microtubule-stimulated ATP hydrolysis by Klp-61F motor domain, in words” value in assay [3] is “weakly inhibited”. In addition, the “Inhibition of human Eg5” value in assay [4] is “inhibit”.
